Results: patent US8772250B2, “Compositions and methods for treating ischemia and ischemia-reperfusion injury” (Ischemix, LLC, priority 2010, dated 2014)
Marks after values point to notes of the source that are not given here.

Legend:
IGF1R = IGF1R (Homo sapiens, UniProt P08069); test: IGF1R tyrosine kinase activation assay (mobility shift); type: biochemical
From the text: (§1) IGF1R and Src tyrosine kinases have endogenous levels of activity in the presence of ATP and substrate. This activity was readily measured using a mobility shift assay using a Caliper LabChip® 3000 and a 12-sipper LabChip® to detect both phosphorylated and unphosphorylated substrate (Caliper Life Sciences, Discovery Alliances and Services Division). Enzyme, substrate and ATP concentrations were optimized for each assay. For the IGF1R assay, the final concentrations of the enzyme, peptide and ATP were 20 nM, 1.5 μM, and 1220 μM, respectively. For the Src assay, the final concentrations of the enzyme, peptide and ATP were 2.5 nM, 1.5 μM, and 17 μM, respectively.
(§2) RLip-EA-OH was evaluated at multiple concentrations for an effect on activation of IGF1 receptor kinase (IGF1R) and Src. The compounds tested activated IGF1R and Src with different selectivities.

Src = Src (Homo sapiens, UniProt P12931); test: Src tyrosine kinase activation assay (mobility shift); type: biochemical
From the text: as §1, §2

[1] = system: RIP-deficient Jurkat cells; test: Cell survival assay, TNFα-induced apoptosis; type: cell-based, human; conditions: for % Survival: 10 ng/mL TNFα, 24 h
Protocol: The ability of RLip-EA-OH to prevent apoptosis and promote cell survival was assessed using Jurkat cells deficient in Receptor-Interacting Protein (RIP), a cell death mediating protein. The Jurkat cell line is derived from human T-Lymphocytes. RIP-deficient Jurkat cells are susceptible to apoptosis when treated with tumor necrosis factor alpha (TNFα). These cells were treated with either vehicle or RLip-EA-OH and then apoptosis was triggered with TNFα. Cell survival was assessed to evaluate if RLip-EA-OH protected the cells against TNFα induced apoptosis.
RIP-deficient Jurkat cells were seeded into 96 well plates at 20,000 cells per well and treated for 2 hours with RLip-EA-OH (6 wells for each concentration) or DMSO. After pretreatment, 3 wells for each dose of drug were exposed to 10 ng/mL human recombinant TNFα (TNFα was not added to the other 3 wells). Twenty four hours after TNFα treatment, ATP cell viability was determined (CellTiter-Glo, Promega) and the values were used to calculate % survival of the cells.

[2] = system: myocardial ischemia-reperfusion injury; test: Rat model of myocardial I/R injury (MI/AR ratio); type: in vivo; conditions: for % Reduction in MI/AR Compared to Vehicle: rat IV

IGF1R, sequence (P08069 959-1367 limits assumed, species assumed): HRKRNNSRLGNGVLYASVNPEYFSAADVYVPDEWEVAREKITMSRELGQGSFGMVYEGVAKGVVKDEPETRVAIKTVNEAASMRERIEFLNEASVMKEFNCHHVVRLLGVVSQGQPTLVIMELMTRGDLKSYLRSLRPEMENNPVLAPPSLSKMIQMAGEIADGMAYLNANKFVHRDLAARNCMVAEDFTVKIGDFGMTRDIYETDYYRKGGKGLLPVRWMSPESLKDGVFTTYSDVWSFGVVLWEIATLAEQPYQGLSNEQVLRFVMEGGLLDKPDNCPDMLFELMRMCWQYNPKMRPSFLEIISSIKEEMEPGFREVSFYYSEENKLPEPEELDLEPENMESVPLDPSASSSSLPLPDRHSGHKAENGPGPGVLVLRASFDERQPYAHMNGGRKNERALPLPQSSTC
Src, sequence (P12931 whole entry, species assumed): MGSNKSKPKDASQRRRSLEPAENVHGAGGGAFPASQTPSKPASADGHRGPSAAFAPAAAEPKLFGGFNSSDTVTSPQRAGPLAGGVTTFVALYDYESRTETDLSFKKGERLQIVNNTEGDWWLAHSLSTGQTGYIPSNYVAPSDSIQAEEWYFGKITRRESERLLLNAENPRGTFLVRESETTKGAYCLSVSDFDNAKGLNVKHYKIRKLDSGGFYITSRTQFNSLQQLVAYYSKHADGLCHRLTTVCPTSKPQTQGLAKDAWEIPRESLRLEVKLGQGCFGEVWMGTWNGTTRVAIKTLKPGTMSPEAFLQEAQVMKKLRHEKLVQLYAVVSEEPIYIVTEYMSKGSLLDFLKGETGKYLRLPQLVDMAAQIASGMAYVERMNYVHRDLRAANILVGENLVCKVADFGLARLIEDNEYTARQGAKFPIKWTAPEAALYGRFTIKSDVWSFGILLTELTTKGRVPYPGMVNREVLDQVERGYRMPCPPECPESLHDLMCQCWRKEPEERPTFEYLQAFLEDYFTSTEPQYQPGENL

With `C[C@H](NC(=O)[C@H](CCC(=O)O)NC(=O)CCCC[C@@H]1CCSS1)C(=O)O` [RLip-EA-OH, N-(R)-lipoyl-L-glutamyl-L- alanine] the “IGF1R % activity above control (±SEM)” value (IGF1R; 100 μM) was 42 ± 1%, the “IGF1R % Increase in activity above vehicle control” value (IGF1R; 300 μM) was 33 ± 3% and the “Src % activity above control (±SEM)” value (Src; 100 μM) was 70 ± 1%. For the same compound, the “Src % Increase in activity above vehicle control” value (Src; 300 μM) was 78 ± 2%, the “% Survival” value ([1]; 0.006 μM) was 84% and the “% Survival” value ([1]; 0.012 μM) was 95%. The “% Survival” value ([1]; 0.05 μM) was 96%, the “% Survival” value ([1]; 0.1 μM) was 98% and the “% Survival” value ([1]; 0.2 μM) was 101%. For the same compound, the “% Survival” value ([1]; 1.5 μM) was 106%, the “effect on TNFα induced cell death” value ([1]; RIP-deficient Jurkat cells) was “prevented TNFα induced cell death in a dose dependent manner” and the “efficacy in a rat model of I/R injury” value ([2]; intravenously (bolus IV and infusion), orally and intra-cardiac) was “efficacious”. For the same compound, the “% Reduction in MI/AR Compared to Vehicle” value ([2]; Entry 1: 1 mg/kg at −0.25 h) was 3%, the “% Reduction in MI/AR Compared to Vehicle” value ([2]; Entry 2a: 3 mg/kg (bolus) at −0.25 h) was 6% and the “% Reduction in MI/AR Compared to Vehicle” value ([2]; Entry 3a: 5 mg/kg (bolus) at −0.25 h) was 27* %. The “% Reduction in MI/AR Compared to Vehicle” value ([2]; Entry 3b: 5 mg/kg (1 h infusion) at −1 h) was 27* %, the “% Reduction in MI/AR Compared to Vehicle” value ([2]; Entry 4a: 10 mg/kg (bolus) at −0.25 h) was 33* % and the “% Reduction in MI/AR Compared to Vehicle” value ([2]; Entry 4b: 10 mg/kg (1 h infusion)) was 33* %. The “% Reduction in MI/AR Compared to Vehicle” value ([2]; Entry 6: 20 mg/kg at −0.25 h) was 9%, the “% Reduction in MI/AR Compared to Vehicle” value ([2]; Entry 8: 10 mg/kg at −6 h) was 24* % and the “% Reduction in MI/AR Compared to Vehicle” value ([2]; Entry 9: 10 mg/kg at −24 h) was 24* %. The “% Reduction in MI/AR Compared to Vehicle” value ([2]; Entry 10: 20 mg/kg at −3 h) was 26* %, the “% Reduction in MI/AR Compared to Vehicle” value ([2]; Entry 11: 40 mg/kg at −3 h) was 17% and the “% Reduction in MI/AR Compared to Vehicle” value ([2]; Entry 14: 10 and 10 mg/kg at −24 and −3 h) was 32* %. For the same compound, the “% Reduction in MI/AR Compared to Vehicle” value ([2]; Entry 15: 10 and 10 and 10 mg/kg at −24 and −3 and −0.25 h) was 42* %, the “% Reduction in MI/AR Compared to Vehicle” value ([2]; Entry 17: 10 and 10 mg/kg at −3 h and at reperfusion) was 34* % and the “reduction of myocardial tissue death vs saline vehicle” value (“reduction of myocardial tissue death” for short) ([2]; rat, 1 mg/kg IC, 15 minutes pre-occlusion) was 38%. The “Reduction of MI:AR Ratio Relative to Vehicle (%)” value ([2]; rat, 1 mg/kg IC, Table 7 meta analysis) was 31 ± 3 %, the “Reduction of MI:AR Ratio Relative to Vehicle (%)” value ([2]; rat, 1 mg/kg IC, Table 8) was 31 ± 3 % and the “reduction of myocardial tissue death” value ([2]; rat, 1 mg/kg IC, at reperfusion (within 1 minute after reperfusion)) was 32%. The “reduction of myocardial tissue death” value ([2]; rat, 1 mg/kg IC, during occlusion (15 minutes after occluding)) was 24%, the “MI:AR ratio” value ([2]; rat, 1 mg/kg IC, meta analysis n=64) was 0.250 and the “reduction of MI/AR vs saline vehicle” value ([2]; rat, 1 mg/kg IC, meta analysis n=64 vs n=54, p<0.001) was 33%. For the same compound, the MI/AR ([2]; rat, 1 mg/kg single bolus IC 15 minutes prior to ischemia) was 0.337, the MI/AR ([2]; rat, 2 mg/kg single bolus IC 15 minutes prior to ischemia) was 0.290 and the “MI/AR (meta-analysis)” value ([2]; rat, B—Single (10_0)) was 0.261. For the same compound, the “MI/AR (meta-analysis)” value ([2]; rat, C—Multiple (10_10)) was 0.207, the “effect of different doses on myocardial tissue death (MI/AR)” value ([2]; rat, IV or IC, 15 minutes pre-occlusion) was “significantly (p<0.05) reduced myocardial tissue death and was dose dependent” and the “% Reduction in MI/AR compared to vehicle controls” value ([2]; rat, Table 11: 10 mg/kg at −0.25 h) was 28%. The “% Reduction in MI/AR compared to vehicle controls” value ([2]; rat, Table 11: 10 and 10 mg/kg at −3 and −0.25 h) was 43* %, the “reduction in MI damage” value ([2]; rat, single 10 mg/kg IV bolus 15 min before ischemia or at 3 h before ischemia) was ~33% and the “reduction of MI (meta-analysis)” value ([2]; rat, single bolus dose 10 mg/kg at −3 h) was 29%.
